Bounds are passed on as bounds.

The test concerns the target T1, LPL:sGPIHBP1 complex (Homo sapiens, UniProt P06858).
T1 sequence (P06858 28-475): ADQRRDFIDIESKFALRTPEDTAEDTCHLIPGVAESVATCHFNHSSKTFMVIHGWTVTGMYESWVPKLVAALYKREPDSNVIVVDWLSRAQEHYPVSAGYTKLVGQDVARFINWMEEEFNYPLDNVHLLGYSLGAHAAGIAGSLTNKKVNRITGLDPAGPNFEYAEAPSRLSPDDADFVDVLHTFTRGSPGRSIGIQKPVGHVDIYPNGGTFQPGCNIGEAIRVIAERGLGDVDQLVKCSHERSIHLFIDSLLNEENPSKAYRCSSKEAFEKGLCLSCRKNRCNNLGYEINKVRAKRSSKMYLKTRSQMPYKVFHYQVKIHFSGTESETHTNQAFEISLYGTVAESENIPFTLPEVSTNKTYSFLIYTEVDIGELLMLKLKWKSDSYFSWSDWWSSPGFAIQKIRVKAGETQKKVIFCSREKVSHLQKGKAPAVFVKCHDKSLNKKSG
T1 sequence (Q8IV16 21-151 partner limits assumed): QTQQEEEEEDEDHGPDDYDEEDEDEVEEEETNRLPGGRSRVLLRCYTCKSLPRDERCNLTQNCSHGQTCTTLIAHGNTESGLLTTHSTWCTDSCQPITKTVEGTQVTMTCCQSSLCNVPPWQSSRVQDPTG
In words: RB assay (LPL:sGPIHBP1 pre-incubated with ANGPTL4, RB substrate). The test is classed as biochemical. The settings on record: read-out: RB qAC50. The method, then:
The assay was performed in black 1536-well plates using purified proteins. To identify compounds that stimulate LPL activity either by directly activating LPL or by inhibiting the antagonist ANGPTL4, the LPL:sGPIHBP1 complex was pre-incubated with ANGPTL4 to decrease LPL activity by 80%. After a 60 min pre-incubation, the reaction was started by adding the RB substrate. 30 min after RB addition, the enzymatic reaction was stopped using SDS. Fluorescence intensity was measured 2 h after stopping the reaction.
20 or 40 nl of compound solution in 100% DMSO were placed in test plate. Then was added LPL:sGPIHBP1 to all wells (diluted in assay buffer to 5 nM; 2 μl/well). This was followed by an addition of ANGPTL4 to compounds and neutral controls (diluted in assay buffer to 20 nM; 1 μl/well). A buffer solution was added to the stimulator control (1 μl/well). The plates were then centrifuged and pre-incubated for 60 min at RT. The reaction was started by adding substrate to all wells (diluted in assay buffer to 40 μM, 1 μl/well). The plated were centrifuged (800 rpm for 1 min) and incubated 30 min at RT (=reaction time). The reaction was stopped by adding SDS to all wells (diluted in water to 2.5%, 2 μl/well); incubated 2 h at RT. The fluorescence intensity (ex 540 nm/em 590 nm) was measured on a Pherastar (BMG) using 5 flashes.
As for `O=C(O)Cc1cc(F)ccc1NC(=O)c1ccc(N2CC3CCC2C3)c(NC(=O)c2nn(CC(F)(F)F)c3ccccc23)c1` (racemic) [Example 58], the EC50 came out at 18 µM.

On to `O=C(O)Cc1cc(Cl)ccc1NC(=O)c1ccc(N2CCCCC2)c(NC(=O)c2nn(CC(F)(F)F)c3ccccc23)c1` [Compound 23, 2-(5-chloro-2-(4-(piperidin-1-yl)-3-(1-(2,2,2-trifluoroethyl)-1H-indazole-3-carboxamido)benzamido)phenyl)acetic acid], for which the EC50 stood at 4.6 µM. Consider `O=C(O)Cc1cccc(F)c1NC(=O)c1ccc(N2CCCCC2)c(NC(=O)c2nn(CC(F)(F)F)c3ccccc23)c1` [Compound 24, 2-(3-fluoro-2-(4-(piperidin-1-yl)-3-(1-(2,2,2-trifluoroethyl)-1H-indazole-3-carboxamido)benzamido)phenyl)acetic acid], for which the EC50 worked out at 3.2 µM. For the compound `O=C(O)Cc1c(F)cccc1NC(=O)c1ccc(N2CCCCC2)c(NC(=O)c2nn(CC(F)(F)F)c3ccccc23)c1` [Compound 37, 2-(2-fluoro-6-(4-(piperidin-1-yl)-3-(1-(2,2,2-trifluoroethyl)-1H-indazole-3-carboxamido)benzamido)phenyl)acetic acid], the EC50 was found to be 5 µM. Consider `O=C(O)Cc1ccc(F)cc1NC(=O)c1ccc(N2CCCCC2)c(NC(=O)c2nn(CC(F)(F)F)c3ccccc23)c1` [Compound 38, 2-(4-fluoro-2-(4-(piperidin-1-yl)-3-(1-(2,2,2-trifluoroethyl)-1H-indazole-3-carboxamido)benzamido)phenyl)acetic acid], for which the EC50 was 3.6 µM. In the case of `O=C(O)Cc1cc(F)ccc1NC(=O)c1ccc(N2CCC2)c(NC(=O)c2nn(CC(F)(F)F)c3ccccc23)c1` [Compound 39, 2-(2-(4-(azetidin-1-yl)-3-(1-(2,2,2-trifluoroethyl)-1H-indazole-3-carboxamido)benzamido)-5-fluorophenyl)acetic acid] it was more than 25 µM; in that of `O=C(O)Cc1cc(F)ccc1NC(=O)c1ccc(N2CCCCC2)c(C(=O)Nc2nn(CC(F)(F)F)c3ccccc23)c1` [Compound 41, 2-(5-fluoro-2-(4-(piperidin-1-yl)-3-((1-(2,2,2-trifluoroethyl)-1H-indazol-3-yl)carbamoyl)benzamido)phenyl)acetic acid], 4.8 µM.

In the case of `Cc1c(C(=O)Nc2ccc(F)cc2CC(=O)O)ccc(N2CCCCC2)c1NC(=O)c1nn(CC(F)(F)F)c2ccccc12` [Compound 42, 2-(5-fluoro-2-(2-methyl-4-(piperidin-1-yl)-3-(1-(2,2,2-trifluoroethyl)-1H-indazole-3-carboxamido)benzamido)phenyl)acetic acid], the EC50 is more than 25 µM.

In the case of `O=C(O)Cc1cc(F)ccc1NC(=O)c1cc(NC(=O)c2nn(CC(F)(F)F)c3ccccc23)c(N2CCCCC2)cn1` [Compound 43, 2-(5-fluoro-2-(5-(piperidin-1-yl)-4-(1-(2,2,2-trifluoroethyl)-1H-indazole-3-carboxamido)picolinamido)phenyl)acetic acid], the EC50 is more than 7.1 µM. In the case of `O=C(O)Cc1cc(F)ccc1NC(=O)c1cnc(N2CCCCC2)c(NC(=O)c2nn(CC(F)(F)F)c3ccccc23)c1` [Compound 44, 2-(5-fluoro-2-(6-(piperidin-1-yl)-5-(1-(2,2,2-trifluoroethyl)-1H-indazole-3-carboxamido)nicotinamido)phenyl)acetic acid] it was more than 25 µM; in that of `O=C(O)Cc1ccccc1C(=O)Nc1ccc(N2CCCCC2)c(C(=O)Nc2nn(CC(F)(F)F)c3ccccc23)c1` [Compound 51, 2-(2-((4-(piperidin-1-yl)-3-((1-(2,2,2-trifluoroethyl)-1H-indazol-3-yl)carbamoyl)phenyl)carbamoyl)phenyl)acetic acid], 4.1 µM.

As to `Cc1cc(N2CCCCC2)c(NC(=O)c2nn(CC(F)(F)F)c3ccccc23)cc1C(=O)Nc1ccc(F)cc1CC(=O)O` [Compound 55, 2-(5-fluoro-2-(2-methyl-4-(piperidin-1-yl)-5-(1-(2,2,2-trifluoroethyl)-1H-indazole-3-carboxamido)benzamido)phenyl)acetic acid], the EC50 was 5 µM.

The values above are taken from US20250092014A1, “COMPOUNDS AND METHODS OF ACTIVATING LIPOPROTEIN LIPASE” (Metrea Biosciences, Inc., priority 2021, published 2025).
